We go through three compounds from paper PMC8042727, “Apoptosis-like cell death upon kinetoplastid induction by compounds isolated from the brown algae Dictyota spiralis” (Parasites & Vectors, 2021).

What all share (type): cell-based
One test relates to Leishmania amazonensis. The test is described as follows: Oxidative stress / ROS accumulation (CellROX Deep Red). Conditions: L. amazonensis, IC90, 24 h. On the procedure:
The reagent used for this assay was a fluorogenic probe to measure cellular oxidative stress upon oxidation by reactive oxygen species (ROS). To perform the test, cells were incubated with the compounds to be tested, at IC90 for 24 h. The cells were centrifuged and resuspended in a volume of 50 μl, following which CellROX™ Deep Red oxidative stress reagent (Thermo-Fisher Scientific) was added to 96-well plates at […]. The plates were then incubated for 30 min at 37 °C. After incubation, the results were analyzed by cell imaging using the Evos cell imaging system. Cells treated with different compounds were compared with untreated control cells and the positive control. Fluorescence intensity was also measured using the Enspire multimode plate reader at excitation/emission wavelengths of 640/665 nm. Accumulation ROS at the cellular level is a good indicator of oxidative stress and is precursor to a chain reaction leading damage at the cellular level to proteins, nucleic acids, lipids, membrane and organelles. These cellular alterations can lead to activation of the cell death process. As such, ROS play an important role in cell signaling and the apoptosis pathway. An intracellular excess of ROS can be detected by the cell-permeable CellROX™ Deep Red reagent, which is a fluorogenic ROS sensor.

The next test has as its system Trypanosoma cruzi. The test can be described thus: ATP level (CellTiter-Glo). To be noted: T. cruzi, IC90, 24 h, relative to negative control. On the procedure:
The CellTiter-Glo® luminescent cell viability assay (Promega, WI, USA) was used to quantify the adenosine triphosphate (ATP) concentration. Cells of the kinetoplastid strains (for both L. amazonensis [2 × 10^6 cells/ml] and T. cruzi [5 × 10^5cells/ml]) were incubated for 24 h with the compounds to be tested, at IC90 and 26 °C. After incubation, the cells were centrifuged and resuspended in 100 μl. To this volume, we added 100 μl of the reactive in white 96-well plates. After incubation, the luminescence signal was measured using the Enspire multimode plate reader. The decrease in ATP level was expressed as a percentage relative to the negative control. Miltefosine and benznidazole were tested as the positive control for L. amazonensis and T. cruzi, respectively.
For orientation: In ATP-based viability assays light output follows the ATP content of the culture.

In test [1] the test system is Leishmania amazonensis amastigotes. The test can be described thus: Anti-amastigotes assay (intra-macrophagic stage, J774A.1). To be noted: for Selectivity index: CC50 murine macrophages / IC50 amastigote; for IC50: J774.A1, Leishmania amazonensis, intracellular in J774A.1, read-out: IC50: amastigote. On the procedure:
The three molecules 1-3 were tested against the intra-macrophagic stage of L. amazonensis as previously described. Briefly, in a 96-well, flat-bottom plate, macrophages of the J774A.1 cell line (American Type Culture Collection #TIB-67) were cultured at a density of 2 × 10^5 cells/ml in RPMI 1640 medium supplemented with 10% heat-inactivated FBS and incubated for 1 h at 37 °C in a 5% CO2 atmosphere to allow almost complete attachment of the cells. The macrophages were then infected with L. amazonensis promastigotes in the stationary phase (7-day-old culture) at a ratio of 1:10 (macrophage:parasite) at a concentration of 2 × 10^6 cells/ml and incubated at 37 °C in 5% CO2 for 24 h. Wells were washed with medium to remove external promastigotes. Thereafter, the infected macrophages were treated with the serially diluted concentrations of the pure compounds for 24 h, following which the medium was removed carefully and replaced by 30 μl of new medium containing 0.05% sodium dodecyl sulfate and the plate shaken for 30 s. Subsequently, 170 μl of Schneider’s medium was added to each well to give a final volume of 200 μl, and 20 μl of AlamarBlue® was added to the plate; the plate was then incubated at 26 °C for 72 h, following which the plates were analyzed using the same protocol as for the promastigotes assay.

Test [2] concerns Leishmania amazonensis promastigotes. The test is described as follows: Mitochondrial membrane potential (JC-1). To be noted: L. amazonensis, IC90, 24 h, relative to negative control. On the procedure: Promastigotes of L. amazonensis (2 × 10^6 cells/ml) and epimastigotes (5 × 10^5cells/ml) of T. cruzi were incubated for 24 h in the presence of the compounds to be tested, at IC90 and 26 °C, following which the cells were centrifuged, resuspended and transferred to black bottom 96-well plate. A 10-μl aliquot of JC-1 reagent (JC-1 Mitochondrial Membrane Potential Assay Kit; Cayman Chemical, Ann Arbor, MI, USA) was added to each well and the plates were incubated for 30 min. The switch of fluorescence from red to green emitted by both forms of the dye (monomer and aggregate) was measured using the Enspire microplate reader (PerkinElmer) at excitation/emission wavelengths of 560/595 and 485/535 for red and green, respectively; the decrease of the ratio was calculated as the percentage relative to the negative control. Cells images were captured using the Evos cell imaging system (Thermo Fisher Scientific), which is a fully integrated digital inverted microscope, at a magnification of ×40 and ×100. Untreated cells are used as the negative control, and miltefosine and benznidazole were used as the positive control.
Disruption of mitochondrial functions induced by the incubation of L. amazonensis and T. cruzi with compounds 1–3 was evaluated using the mitochondrial membrane potential as a measure. JC-1 dye was used in this assay. In the case of normal mitochondrial membrane potential, the reactive dye will form aggregates that emit red fluorescence; a collapsed potential induces the monomeric form with green fluorescence. This parameter is expressed as the absolute red/green ratio of fluorescence. We considered the values of the negative controls to be the normal values, and therefore the collapse of mitochondrial membrane potential is expressed as a percentage (see Fig. 4a). This parameter is involved in energy storage and is an important indicator of cell health and viability.

Test [3] has the same test system. The test is described as follows: Plasma membrane permeability assay (SYTOX Green). Conditions: L. amazonensis, IC90, up to 6 h, compared to Triton X-100 (100%). On the procedure:
This assay was performed to evaluate the cell’s membrane permeability. Following the manufacturer’s recommendations, promastigotes of L. amazonensis and epimastigotes of T. cruzi were incubated in phosphate saline buffer in the presence of 1 μM of SYTOX® Green nucleic acid stain (Life Technologies, Waltham, MA, USA) and the IC90 of the different test compounds to be tested. Variation in fluorescence was measured every 15 min for 6 h using the Enspire multimode plate reader at excitation/emission wavelengths of 485/520. The percentage of relative permeabilization was calculated in reference to complete permeabilization realized by adding Triton X-100 (Sigma-Aldrich). In addition, both L. amazonensis and T. cruzi cells were incubated for 24 h with compounds 1–3, miltefosine and benznidazole, and images were captured using the Evos cell imaging system.
One of the detectable cellular events of a necrotic cell death is the rupture of the plasma membrane. This event can be detected by evaluating plasma membrane permeabilization. We performed the SYTOX Green dye assay to detect effect of compounds 1–3 on membrane permeability. This green-fluorescence dye has a high affinity for DNA. Triton X-100 was used as a positive control in light of its known effect to cause 100% membrane permeabilization. Values of fluorescence were measured each 15 min for 6 h.

Regarding `CC(C)=CCC[C@](C)(O)[C@@H]1CC[C@@H](C)[C@@H]2CC=C(C)[C@H]2[C@@H]1O` [Compound 1, pachydictyol C], the “ROS accumulation (fluorescence vs negative control)” value with Leishmania amazonensis is recorded as “more remarkable”. In addition, the “decrease in ATP concentration” value in the test on Trypanosoma cruzi is recorded as > 70%. For the same compound, in test [1], the Selectivity index was found to be 37.76 and the half-inhibitory concentration (IC50) is 970 ± 130 nM. For the same compound, the “decrease in mitochondrial potential” value in test [2] turned out to be 34.0%. Moreover, the “percentage of membrane permeabilization” value in test [3] is on record as < 20%.
In the case of `C=C1CC[C@@H]([C@@](C)(O)CCC=C(C)C)[C@@H](O)[C@@H]2C(C)=CC[C@@H]12` [Compound 2, dictyol E], the “ROS accumulation (fluorescence vs negative control)” value in the test with Leishmania amazonensis was “slight increase in fluorescence but the increase was not significant”. Also, in the test with Trypanosoma cruzi, the “decrease in ATP concentration” value is recorded as > 95%. In addition, in test [1], the Selectivity index turned out to be 25.56 and the IC50 is 2030 ± 220 nM. Further, in test [2], the “decrease in mitochondrial potential” value is on record as 40.7%. In addition, in test [3], the “percentage of membrane permeabilization” value is reported as < 20%.
Turning to `C=C(C)[C@H]1CC[C@]2(C)C[C@@H]3O[C@@]3(C)CC/C=C(\C)CC[C@@H]12` [Compound 3, 3,4-epoxy-7,18-dolabelladiene], in the test on Leishmania amazonensis, the “ROS accumulation (fluorescence vs negative control)” value is “more remarkable”. In the test on Trypanosoma cruzi, the “decrease in ATP concentration” value is given as > 95%. In test [1], the Selectivity index came out at 18.02 and the half-inhibitory concentration (IC50) was determined as 3880 ± 170 nM. Moreover, in test [2], the “decrease in mitochondrial potential” value is > 80%. In addition, the “percentage of membrane permeabilization” value in test [3] was found to be 35%.

The term IC50 denotes the midpoint of a concentration-inhibition curve.
